These results are taken from ChEMBL document CHEMBL4602662, “Orthoscuticellines A-E, β-Carboline Alkaloids from the Bryozoan Orthoscuticella ventricosa Collected in Australia” (J Nat Prod, 2020).

The subject of series [1] is Plasmodium falciparum. As to the kind of experiment: Antiplasmodial activity against Plasmodium falciparum K1. The class given is functional, organism-based.
Series [2] concerns Plasmodium falciparum. The series is described as follows: Antiplasmodial activity against chloroquine-sensitive Plasmodium falciparum 3D7 incubated for 72 hrs by DAPI-staining based imaging analysis. The series is classed as functional, organism-based. The following applies: 3D7, 72 h.
A short description of series [3]: Stability of compound. The series is classed as physicochemical.
The test system of series [4] is HEK293. The series is described as follows: Cytotoxicity against HEK293 cells at 40 uM incubated for 72 hrs by resazurin dye based assay relative to control. The class given is cell-based. To be noted: human, hek293, 72 h.
The subject of series [5] is HEK293. As to the kind of experiment: Cytotoxicity against HEK293 cells incubated for 72 hrs by resazurin dye based assay. The class given is cell-based. To be noted: Homo sapiens, HEK293, 72 h. (In general: Alamar Blue is a resazurin reagent that responds to reducing activity.)

Molecules are shown by their SMILES.

In general, IC50 refers to the concentration that gives 50% inhibition. High values mean a need for much substance, low ones inhibition by little substance. `CCN(CC)CCCC(C)Nc1nccc2c1[nH]c1ccccc12` (stereo not drawn): in series [1], the IC50 lay within 1 to 18 µM.
On the same count and under the same terms, the same measure for `OCCNc1nccc2c1[nH]c1ccccc12`: 1 to 18 µM.
Turning to `C[C@H]1[C@H](OC(=O)CCC(=O)O)O[C@@H]2O[C@@]3(C)CC[C@H]4[C@H](C)CC[C@@H]1[C@@]24OO3` [ARTESUNATE], in series [2], the IC50 was determined as 0.0003 µM.
Take `CN(C)CCc1nccc2c1[nH]c1ccccc12`: the Stability result in series [3] was “Unstable”.
For the molecule `CCc1ncc(S(C)(=O)=O)c2c1[nH]c1ccccc12`, in series [4], the Activity came to 17%. Moreover, the figures for the IC50 in series [5] and in series [2] were over 40 µM and 21 µM, respectively.
As to `CCN(CC)CCCC(C)Nc1ccnc2cc(Cl)ccc12` (stereo not drawn) [CHLOROQUINE], the Activity in series [4] is given as 40%. The same molecule gave an IC50 in series [5] of over 40 µM.
`OC1CCCN(c2nccc3c2[nH]c2ccccc23)C1` (stereo not drawn): the IC50 in series [1] was in the range of 1 to 18 µM.
On the same count and under the same terms, to `c1ccc2c(c1)[nH]c1c(N3CCOCC3)nccc12` belongs 1 to 18 µM; to `CCN(CC)C1CCN(c2nccc3c2[nH]c2ccccc23)CC1`, 1 to 18 µM.
Consider `O=S(=O)(O)CCc1nccc2c1[nH]c1ccccc12`, for which the Activity in series [4] came out at 30%. In addition, the IC50 was over 40 µM in series [5] and 12 µM in series [2].
As to `c1ccc2c(c1)[nH]c1c([C@H]3CC[C@H]3c3nccc4c3[nH]c3ccccc34)nccc12`, the IC50 in series [5] and in series [2] was 10 µM in each case.
Turning to `CN(C)CCCNc1nccc2c1[nH]c1ccccc12`, the IC50 in series [1] fell in the range of 1 to 18 µM.
In turn, `CCc1nccc2c1[nH]c1ccccc12` displayed an Activity in series [4] of 35%. Moreover, the IC50 in series [5] was over 40 µM; in series [2] it was 18 µM.
In turn, `c1ccc2c(c1)[nH]c1c(N3CCC(N4CCCCC4)CC3)nccc12` registered an IC50 in series [1] of 1 to 18 µM.
Same read-out and setting: to `CCN(CC)CCCNc1nccc2c1[nH]c1ccccc12` belongs 1 to 18 µM.
Molecule `c1ccc2c(c1)[nH]c1c([C@H]3CC[C@@H]3c3nccc4c3[nH]c3ccccc34)nccc12` registered an Activity in series [4] of 29%. Also, the IC50 in series [5] and in series [2] was over 40 µM throughout.
For the molecule `c1ccc2c(c1)[nH]c1c(N3CCC(N4CCCCCC4)CC3)nccc12`, in series [1], the IC50 is 1 to 18 µM.
On the same count and under the same terms, the same measure for `CN1CCN(c2nccc3c2[nH]c2ccccc23)CC1`: 1 to 18 µM; for `c1ccc2c(c1)[nH]c1c(N3CCCCC3)nccc12`: 1 to 18 µM.
As for `OCC(O)c1nccc2c1[nH]c1ccccc12` (stereo not drawn), the Activity in series [4] is on record as 37%. The values for the IC50 in series [5] and in series [2] were over 40 µM and 14 µM, respectively.
The molecule `c1ccc2c(c1)[nH]c1c(N3CCC(N4CCCC4)CC3)nccc12` came in with an IC50 in series [1] of 1 to 18 µM.
